Measurements: patent publication US10336732B2, “1-heterocyclyl isochromanyl compounds and analogs for treating CNS disorders” (Sunovion Pharmaceuticals Inc., priority 2015, dated 2019)

test system: mice; experiment: Neuropharmacological assay (SmartCube), behavioral signature of compound-treated mice; format: in vivo; conditions: i.p. 15 min before behavioral test, most efficacious dose(s) of 3 doses
Procedure, shortened: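 Read-out is an automated video-based behavioral signature, scored as per-class probabilities (e.g., anxiolytic, antidepressant) against reference compounds. Dosing was i.p. at three doses, 15 min pre-test, in NMP, polyethylene glycol and propylene glycol. Values shown are from the most efficacious dose(s).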

Structure (SMILES)	AD: ADHD (probability that behavioral signature matches class)	AG: analgesic (probability that behavioral signature matches class)	AX: anxiolytic (probability that behavioral signature matches class)	CE: cognitive enhancer (probability that behavioral signature matches class)	DP: anti-depressant (probability that behavioral signature matches class)	HA: hallucinogen (probability that behavioral signature matches class)	MS: mood stabilizer (probability that behavioral signature matches class)	PS: anti-psychotic (probability that behavioral signature matches class)	SD: sedative hypnotic (probability that behavioral signature matches class)	UN: uncharacterized CNS activity (probability that behavioral signature matches class)
Fc1ccc2c(c1)CCO[C@H]2[C@@H]1CCCCN1 [Compound I-74, (S)-2-((R)-6-fluoroisochroman-1-yl)piperidine]	+ (LOQ ≤ + <5%)	++ (5% ≤ ++ <25%)	++ (5% ≤ ++ <25%)	++ (5% ≤ ++ <25%)	++ (5% ≤ ++ <25%)	+ (LOQ ≤ + <5%)	+ (LOQ ≤ + <5%)	+++ (25% ≤ +++ <50%)	++ (5% ≤ ++ <25%)	+ (LOQ ≤ + <5%)
c1ccc2c(c1)CCO[C@@H]2[C@@H]1COCCN1 [Compound I-75, (S)-3-((S)-isochroman-1-yl)morpholine]	+ (LOQ ≤ + <5%)	+ (LOQ ≤ + <5%)	++ (5% ≤ ++ <25%)	++ (5% ≤ ++ <25%)	+++ (25% ≤ +++ <50%)	+ (LOQ ≤ + <5%)	++ (5% ≤ ++ <25%)	++ (5% ≤ ++ <25%)	++ (5% ≤ ++ <25%)	+ (LOQ ≤ + <5%)
c1ccc2c(c1)CCO[C@H]2[C@@H]1COCCN1 [Compound I-76, (S)-3-((R)-isochroman-1-yl)morpholine]	+ (LOQ ≤ + <5%)	++ (5% ≤ ++ <25%)	++ (5% ≤ ++ <25%)	+ (LOQ ≤ + <5%)	++ (5% ≤ ++ <25%)	+ (LOQ ≤ + <5%)	+ (LOQ ≤ + <5%)	++ (5% ≤ ++ <25%)	+ (LOQ ≤ + <5%)	+ (LOQ ≤ + <5%)
Fc1ccc2c(c1)CCO[C@@H]2[C@@H]1COCCN1 [Compound I-77, (S)-3-((S)-6-fluoroisochroman-1-yl)morpholine]	+ (LOQ ≤ + <5%)	+ (LOQ ≤ + <5%)	++ (5% ≤ ++ <25%)	+ (LOQ ≤ + <5%)	+ (LOQ ≤ + <5%)	+ (LOQ ≤ + <5%)	+ (LOQ ≤ + <5%)	+ (LOQ ≤ + <5%)	+ (LOQ ≤ + <5%)	+ (LOQ ≤ + <5%)
Fc1ccc2c(c1)CCO[C@H]2[C@@H]1COCCN1 [Compound I-78, (S)-3-((R)-6-fluoroisochroman-1-yl)morpholine]	+ (LOQ ≤ + <5%)	++ (5% ≤ ++ <25%)	+++ (25% ≤ +++ <50%)	++ (5% ≤ ++ <25%)	++ (5% ≤ ++ <25%)	+ (LOQ ≤ + <5%)	+ (LOQ ≤ + <5%)	++ (5% ≤ ++ <25%)	+ (LOQ ≤ + <5%)	+ (LOQ ≤ + <5%)
c1ccc2c(c1)CCO[C@@H]2[C@@H]1CCN1 [Compound I-79, (S)-2-((S)-isochroman-1-yl)azetidine]	++ (5% ≤ ++ <25%)	++ (5% ≤ ++ <25%)	+++ (25% ≤ +++ <50%)	++ (5% ≤ ++ <25%)	++ (5% ≤ ++ <25%)	+ (LOQ ≤ + <5%)	++ (5% ≤ ++ <25%)	+++ (25% ≤ +++ <50%)	+ (LOQ ≤ + <5%)	+ (LOQ ≤ + <5%)
c1ccc2c(c1)CCO[C@H]2[C@@H]1CCN1 [Compound I-80, (S)-2-((R)-iso-chroman-1-yl)azetidine]	+ (LOQ ≤ + <5%)	++ (5% ≤ ++ <25%)	++ (5% ≤ ++ <25%)	++ (5% ≤ ++ <25%)	+++ (25% ≤ +++ <50%)	+ (LOQ ≤ + <5%)	++ (5% ≤ ++ <25%)	++ (5% ≤ ++ <25%)	+ (LOQ ≤ + <5%)	+++ (25% ≤ +++ <50%)
c1ccc2c(c1)CCO[C@@H]2[C@H]1CCN1 [Compound I-81, (R)-2-((S)-isochroman-1-yl)azetidine]	+ (LOQ ≤ + <5%)	++ (5% ≤ ++ <25%)	+++ (25% ≤ +++ <50%)	++ (5% ≤ ++ <25%)	++ (5% ≤ ++ <25%)	+ (LOQ ≤ + <5%)	+ (LOQ ≤ + <5%)	++ (5% ≤ ++ <25%)	+++ (25% ≤ +++ <50%)	+ (LOQ ≤ + <5%)
c1ccc2c(c1)CCO[C@H]2[C@H]1CCN1 [Compound I-82, (R)-2-((R)-isochroman-1-yl)azetidine]	+ (LOQ ≤ + <5%)	++ (5% ≤ ++ <25%)	++ (5% ≤ ++ <25%)	++ (5% ≤ ++ <25%)	+++ (25% ≤ +++ <50%)	+ (LOQ ≤ + <5%)	++ (5% ≤ ++ <25%)	++ (5% ≤ ++ <25%)	++ (5% ≤ ++ <25%)	++ (5% ≤ ++ <25%)
Fc1cccc2c1[C@@H]([C@@H]1CCN1)OCC2 [Compound I-84, (S)-2-((S)-8-fluoroisochroman-1-yl)azetidine]	+ (LOQ ≤ + <5%)	+ (LOQ ≤ + <5%)	++ (5% ≤ ++ <25%)	+ (LOQ ≤ + <5%)	++ (5% ≤ ++ <25%)	+ (LOQ ≤ + <5%)	++ (5% ≤ ++ <25%)	++++ (50% ≤ ++++)	++ (5% ≤ ++ <25%)	+ (LOQ ≤ + <5%)
Fc1ccc2c(c1)[C@@H]([C@@H]1CCN1)OCC2 [Compound I-85, (S)-2-((S)-7-fluoroisochroman-1-yl)azetidine]	+ (LOQ ≤ + <5%)	+ (LOQ ≤ + <5%)	++ (5% ≤ ++ <25%)	++ (5% ≤ ++ <25%)	++ (5% ≤ ++ <25%)	+ (LOQ ≤ + <5%)	+ (LOQ ≤ + <5%)	+++ (25% ≤ +++ <50%)	++ (5% ≤ ++ <25%)	++ (5% ≤ ++ <25%)

same assay, conditions: i.p. 15 min before behavioral test, most efficacious dose(s) of 3 doses

Structure (SMILES)	XG: anxiogenic (probability that behavioral signature matches class)
Fc1ccc2c(c1)CCO[C@H]2[C@@H]1CCCCN1 [Compound I-74, (S)-2-((R)-6-fluoroisochroman-1-yl)piperidine]	+ (LOQ ≤ + <5%)
c1ccc2c(c1)CCO[C@@H]2[C@@H]1COCCN1 [Compound I-75, (S)-3-((S)-isochroman-1-yl)morpholine]	+ (LOQ ≤ + <5%)
c1ccc2c(c1)CCO[C@H]2[C@@H]1COCCN1 [Compound I-76, (S)-3-((R)-isochroman-1-yl)morpholine]	+ (LOQ ≤ + <5%)
Fc1ccc2c(c1)CCO[C@@H]2[C@@H]1COCCN1 [Compound I-77, (S)-3-((S)-6-fluoroisochroman-1-yl)morpholine]	+ (LOQ ≤ + <5%)
Fc1ccc2c(c1)CCO[C@H]2[C@@H]1COCCN1 [Compound I-78, (S)-3-((R)-6-fluoroisochroman-1-yl)morpholine]	+ (LOQ ≤ + <5%)
c1ccc2c(c1)CCO[C@@H]2[C@@H]1CCN1 [Compound I-79, (S)-2-((S)-isochroman-1-yl)azetidine]	+ (LOQ ≤ + <5%)
c1ccc2c(c1)CCO[C@H]2[C@@H]1CCN1 [Compound I-80, (S)-2-((R)-iso-chroman-1-yl)azetidine]	+ (LOQ ≤ + <5%)
c1ccc2c(c1)CCO[C@@H]2[C@H]1CCN1 [Compound I-81, (R)-2-((S)-isochroman-1-yl)azetidine]	+ (LOQ ≤ + <5%)
c1ccc2c(c1)CCO[C@H]2[C@H]1CCN1 [Compound I-82, (R)-2-((R)-isochroman-1-yl)azetidine]	+ (LOQ ≤ + <5%)
Fc1cccc2c1[C@@H]([C@@H]1CCN1)OCC2 [Compound I-84, (S)-2-((S)-8-fluoroisochroman-1-yl)azetidine]	+ (LOQ ≤ + <5%)
Fc1ccc2c(c1)[C@@H]([C@@H]1CCN1)OCC2 [Compound I-85, (S)-2-((S)-7-fluoroisochroman-1-yl)azetidine]	+ (LOQ ≤ + <5%)
